Measured values published in patent US9957247B2, “SecA inhibitors and methods of making and using thereof” (Georgia State University Research Foundation, Inc., priority 2012, dated 2018).
Converted amounts (≈) assume the structure as drawn. Where two headings read alike, the source gives them in different places.

Key:
BaSecA1 = BaSecA1 (Bacillus anthracis, UniProt Q81X26); test: cell-based; conditions: read-out: IC50, Ion Channel activity, BGaSecA 1
EcSecA [1] = target: T1, EcSecA (Escherichia coli, UniProt P10408); conditions: read-out: IC50, Ion Channel activity, EcSecA; Table 1
Target sequence in this assay (P10408 whole entry): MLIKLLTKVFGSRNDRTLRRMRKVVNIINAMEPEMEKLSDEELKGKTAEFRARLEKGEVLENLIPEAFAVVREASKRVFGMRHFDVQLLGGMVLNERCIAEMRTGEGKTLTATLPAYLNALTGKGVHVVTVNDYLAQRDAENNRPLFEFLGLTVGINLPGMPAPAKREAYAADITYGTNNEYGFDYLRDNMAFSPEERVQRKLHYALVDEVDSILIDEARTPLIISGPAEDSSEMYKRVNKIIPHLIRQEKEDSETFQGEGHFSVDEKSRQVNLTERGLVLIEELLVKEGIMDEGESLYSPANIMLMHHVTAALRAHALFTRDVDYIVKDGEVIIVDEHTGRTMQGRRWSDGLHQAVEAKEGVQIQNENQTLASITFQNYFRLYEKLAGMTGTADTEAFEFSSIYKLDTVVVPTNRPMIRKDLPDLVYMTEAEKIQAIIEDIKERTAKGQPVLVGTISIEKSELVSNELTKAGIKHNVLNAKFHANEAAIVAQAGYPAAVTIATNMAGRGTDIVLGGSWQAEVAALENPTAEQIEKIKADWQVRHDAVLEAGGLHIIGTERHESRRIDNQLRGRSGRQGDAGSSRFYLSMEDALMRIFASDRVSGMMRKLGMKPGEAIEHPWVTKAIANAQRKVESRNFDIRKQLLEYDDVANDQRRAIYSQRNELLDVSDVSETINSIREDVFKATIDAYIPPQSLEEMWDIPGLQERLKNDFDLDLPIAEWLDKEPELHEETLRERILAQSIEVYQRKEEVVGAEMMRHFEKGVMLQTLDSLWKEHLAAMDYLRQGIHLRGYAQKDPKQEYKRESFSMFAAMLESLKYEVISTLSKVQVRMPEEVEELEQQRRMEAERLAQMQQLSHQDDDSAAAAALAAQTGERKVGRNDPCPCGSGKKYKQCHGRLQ

BsSecA [2] = target: T2, BsSecA (Bacillus subtilis, UniProt P28366); test: biochemical; format: biochemical, B. subtilis
MsSecA = MsSecA (Mycolicibacterium smegmatis, UniProt P71533); test: SecA-liposomes ion-channel activity in oocytes, MsSecA; format: cell-based; conditions: Table 1
BsSecA [3] = target: T2, BsSecA; test: cell-based; design: species or system B. subtilis; conditions: Table 1; read-out: IC50, Ion Channel activity, BsSecA
SpSecA = SpSecA (Streptococcus pyogenes, UniProt Q99Y96); format: cell-based; conditions: read-out: IC50, Ion Channel activity, SpSecA
EcSecA [4] = target: T1, EcSecA; test: biochemical; conditions: IC50, Protein Translocation, Table 1
Target sequence in this assay (P0AG99 whole entry): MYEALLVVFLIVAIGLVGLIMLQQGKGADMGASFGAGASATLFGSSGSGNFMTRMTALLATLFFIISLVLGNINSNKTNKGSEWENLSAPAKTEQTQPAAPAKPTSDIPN
Target sequence in this assay (P10408 whole entry): as the sequence (P10408 whole entry) above
Target sequence in this assay (P0AGA2 whole entry, further chain): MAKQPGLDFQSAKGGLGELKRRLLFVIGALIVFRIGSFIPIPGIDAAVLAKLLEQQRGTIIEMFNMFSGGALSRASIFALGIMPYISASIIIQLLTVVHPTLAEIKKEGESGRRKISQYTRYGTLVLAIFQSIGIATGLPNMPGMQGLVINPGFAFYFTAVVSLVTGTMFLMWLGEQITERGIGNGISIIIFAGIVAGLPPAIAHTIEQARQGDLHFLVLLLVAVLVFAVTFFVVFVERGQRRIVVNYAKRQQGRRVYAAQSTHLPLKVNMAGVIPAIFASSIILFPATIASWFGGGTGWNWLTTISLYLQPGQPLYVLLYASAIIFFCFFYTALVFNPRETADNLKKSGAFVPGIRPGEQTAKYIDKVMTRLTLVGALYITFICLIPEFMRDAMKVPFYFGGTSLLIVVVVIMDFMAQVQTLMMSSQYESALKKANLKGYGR
Target sequence in this assay (P0AG96 whole entry, further chain): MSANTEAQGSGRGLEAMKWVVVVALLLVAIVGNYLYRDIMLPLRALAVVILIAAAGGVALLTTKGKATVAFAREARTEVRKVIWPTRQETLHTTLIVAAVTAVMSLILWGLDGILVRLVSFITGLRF

S. aureus Mu50 = test: Bacteriostatic effect, S. aureus Mu50; conditions: Staphylococcus aureus, MU50, read-out: MIC95 against drug resistant S. aureus Mu50
EcSecA [5] = target: T1, EcSecA; conditions: read-out: IC50, Translocation ATPase, EcSecA; Table 1
Target sequence in this assay (P0AG99 whole entry): as the sequence (P0AG99 whole entry) above
Target sequence in this assay (P10408 whole entry): as the sequence (P10408 whole entry) above
Target sequence in this assay (P0AGA2 whole entry, further chain): as the sequence (P0AGA2 whole entry, further chain) above
Target sequence in this assay (P0AG96 whole entry, further chain): as the sequence (P0AG96 whole entry, further chain) above

EcSecA N68 = EcSecA N68 (Escherichia coli, UniProt P10408); test: biochemical; format: biochemical, E. coli; conditions: Table 1; read-out: IC50, Intrinsic ATPase, EcSecA N68
MtbSecA = MtbSecA (Mycobacterium tuberculosis, UniProt P9WGP5); test: cell-based
SaSecA2 = target: T3, SaSecA2 (Staphylococcus aureus, UniProt Q2FUW6); test: ATPase activity assay (malachite green), SaSecA2; conditions: IC50, Intrinsic ATPase, SaSecA2, Table 1
T3 sequence (Q2FUW6 1-796): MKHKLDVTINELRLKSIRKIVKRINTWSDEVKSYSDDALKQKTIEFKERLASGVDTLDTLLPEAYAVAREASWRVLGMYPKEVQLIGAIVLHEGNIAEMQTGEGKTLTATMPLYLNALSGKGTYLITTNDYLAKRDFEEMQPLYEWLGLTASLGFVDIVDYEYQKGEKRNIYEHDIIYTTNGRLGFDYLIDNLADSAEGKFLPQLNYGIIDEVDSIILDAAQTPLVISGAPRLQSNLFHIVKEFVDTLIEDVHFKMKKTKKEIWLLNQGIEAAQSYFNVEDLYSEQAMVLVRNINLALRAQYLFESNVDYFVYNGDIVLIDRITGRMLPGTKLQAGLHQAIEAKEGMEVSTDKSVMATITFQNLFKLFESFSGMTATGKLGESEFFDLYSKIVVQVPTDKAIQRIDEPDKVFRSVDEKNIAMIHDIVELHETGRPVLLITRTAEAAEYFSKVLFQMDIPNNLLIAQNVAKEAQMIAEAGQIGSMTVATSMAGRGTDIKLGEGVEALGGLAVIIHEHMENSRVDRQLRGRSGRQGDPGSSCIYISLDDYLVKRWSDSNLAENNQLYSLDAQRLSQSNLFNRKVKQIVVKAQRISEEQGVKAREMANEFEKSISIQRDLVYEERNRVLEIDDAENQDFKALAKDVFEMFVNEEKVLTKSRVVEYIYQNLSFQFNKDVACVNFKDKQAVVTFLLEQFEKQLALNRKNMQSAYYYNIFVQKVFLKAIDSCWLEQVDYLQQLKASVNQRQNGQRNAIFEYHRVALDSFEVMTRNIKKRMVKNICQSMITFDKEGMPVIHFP

S. pyogenes, MGAS5005 = test: MIC95, S. pyogenes MGAS5005; format: cell-based; conditions: Streptococcus pyogenes, MGAS5005; read-out: MIC95, S. pyogenes MGAS5005
SaSecA1 = target: T4, SaSecA1 (Staphylococcus aureus, UniProt O06446); conditions: read-out: IC50, Ion Channel activity, SaSecA1; Table 1
T4 sequence (O06446 1-843): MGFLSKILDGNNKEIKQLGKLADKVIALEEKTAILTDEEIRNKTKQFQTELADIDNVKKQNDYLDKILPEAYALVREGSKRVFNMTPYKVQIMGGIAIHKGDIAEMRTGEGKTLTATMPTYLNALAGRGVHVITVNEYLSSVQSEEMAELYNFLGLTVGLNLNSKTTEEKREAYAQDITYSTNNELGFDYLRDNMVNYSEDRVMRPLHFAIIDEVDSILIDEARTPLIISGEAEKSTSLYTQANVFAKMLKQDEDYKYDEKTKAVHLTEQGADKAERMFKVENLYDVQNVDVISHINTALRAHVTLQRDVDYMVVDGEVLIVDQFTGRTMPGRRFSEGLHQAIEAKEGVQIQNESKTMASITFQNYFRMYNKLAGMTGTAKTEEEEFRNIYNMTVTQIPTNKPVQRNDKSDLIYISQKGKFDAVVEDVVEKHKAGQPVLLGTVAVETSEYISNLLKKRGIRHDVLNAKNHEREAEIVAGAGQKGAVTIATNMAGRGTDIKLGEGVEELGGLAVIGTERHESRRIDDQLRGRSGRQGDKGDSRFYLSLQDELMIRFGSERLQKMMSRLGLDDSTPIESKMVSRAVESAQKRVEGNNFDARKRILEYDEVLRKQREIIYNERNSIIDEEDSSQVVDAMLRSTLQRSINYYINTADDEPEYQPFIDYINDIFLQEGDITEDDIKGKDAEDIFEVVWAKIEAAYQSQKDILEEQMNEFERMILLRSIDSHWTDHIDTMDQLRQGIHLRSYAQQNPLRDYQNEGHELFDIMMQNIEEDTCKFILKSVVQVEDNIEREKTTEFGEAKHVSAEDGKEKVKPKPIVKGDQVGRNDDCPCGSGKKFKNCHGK

PaSecA = PaSecA (Pseudomonas aeruginosa, UniProt Q9LCT3); test: cell-based; format: cell-based; conditions: IC50, Ion Channel activity, PASecA, Table 1
BsSecA2 = conditions: read-out: IC50, Intrinsic ATPase, BsSecA2; Table 1

T2 sequence (P28366 whole entry): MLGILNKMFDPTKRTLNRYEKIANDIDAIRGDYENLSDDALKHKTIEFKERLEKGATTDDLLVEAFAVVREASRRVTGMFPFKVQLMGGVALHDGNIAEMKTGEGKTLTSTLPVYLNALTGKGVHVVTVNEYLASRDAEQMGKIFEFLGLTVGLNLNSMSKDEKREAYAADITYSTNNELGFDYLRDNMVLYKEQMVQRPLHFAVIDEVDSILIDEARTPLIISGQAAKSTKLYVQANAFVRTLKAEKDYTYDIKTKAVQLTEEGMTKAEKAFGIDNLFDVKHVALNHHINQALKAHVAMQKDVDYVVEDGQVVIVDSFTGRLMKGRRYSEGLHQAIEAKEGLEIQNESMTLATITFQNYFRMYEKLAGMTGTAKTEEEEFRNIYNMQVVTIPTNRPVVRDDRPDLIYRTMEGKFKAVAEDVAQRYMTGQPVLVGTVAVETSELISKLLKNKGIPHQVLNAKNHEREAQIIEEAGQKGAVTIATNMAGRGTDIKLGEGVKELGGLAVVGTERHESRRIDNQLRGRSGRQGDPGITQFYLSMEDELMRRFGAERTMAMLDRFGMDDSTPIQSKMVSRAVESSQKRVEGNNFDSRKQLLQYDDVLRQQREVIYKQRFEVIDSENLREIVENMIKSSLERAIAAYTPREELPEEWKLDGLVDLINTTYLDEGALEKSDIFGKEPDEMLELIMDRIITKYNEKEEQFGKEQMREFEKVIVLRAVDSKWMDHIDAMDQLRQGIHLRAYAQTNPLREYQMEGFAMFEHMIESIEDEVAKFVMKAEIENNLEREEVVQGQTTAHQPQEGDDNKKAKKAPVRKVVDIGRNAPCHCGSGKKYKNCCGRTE
Sequence of BaSecA1 (Q81X26 whole entry, looked up): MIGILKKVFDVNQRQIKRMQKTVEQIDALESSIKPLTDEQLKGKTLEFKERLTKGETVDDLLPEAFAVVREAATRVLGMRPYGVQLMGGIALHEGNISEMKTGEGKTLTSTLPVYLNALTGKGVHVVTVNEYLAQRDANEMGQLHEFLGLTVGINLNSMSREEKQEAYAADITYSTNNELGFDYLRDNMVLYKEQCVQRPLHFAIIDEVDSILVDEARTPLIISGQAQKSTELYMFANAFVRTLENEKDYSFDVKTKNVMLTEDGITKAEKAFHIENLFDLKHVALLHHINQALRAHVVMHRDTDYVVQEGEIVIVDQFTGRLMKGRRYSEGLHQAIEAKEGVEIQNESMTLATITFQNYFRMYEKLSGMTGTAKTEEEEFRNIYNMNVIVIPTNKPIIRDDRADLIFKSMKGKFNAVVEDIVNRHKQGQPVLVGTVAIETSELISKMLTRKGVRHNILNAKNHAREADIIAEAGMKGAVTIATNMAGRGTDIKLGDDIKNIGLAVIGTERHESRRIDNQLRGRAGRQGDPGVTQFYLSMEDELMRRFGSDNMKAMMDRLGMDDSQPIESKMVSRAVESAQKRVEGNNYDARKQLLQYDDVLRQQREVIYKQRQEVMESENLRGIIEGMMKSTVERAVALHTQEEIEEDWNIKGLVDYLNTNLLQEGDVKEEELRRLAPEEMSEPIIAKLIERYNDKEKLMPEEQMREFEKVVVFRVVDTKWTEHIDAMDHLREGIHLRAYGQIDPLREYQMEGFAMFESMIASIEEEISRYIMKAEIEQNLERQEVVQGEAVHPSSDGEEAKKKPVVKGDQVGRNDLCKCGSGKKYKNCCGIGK
Sequence of MtbSecA (P9WGP5 whole entry): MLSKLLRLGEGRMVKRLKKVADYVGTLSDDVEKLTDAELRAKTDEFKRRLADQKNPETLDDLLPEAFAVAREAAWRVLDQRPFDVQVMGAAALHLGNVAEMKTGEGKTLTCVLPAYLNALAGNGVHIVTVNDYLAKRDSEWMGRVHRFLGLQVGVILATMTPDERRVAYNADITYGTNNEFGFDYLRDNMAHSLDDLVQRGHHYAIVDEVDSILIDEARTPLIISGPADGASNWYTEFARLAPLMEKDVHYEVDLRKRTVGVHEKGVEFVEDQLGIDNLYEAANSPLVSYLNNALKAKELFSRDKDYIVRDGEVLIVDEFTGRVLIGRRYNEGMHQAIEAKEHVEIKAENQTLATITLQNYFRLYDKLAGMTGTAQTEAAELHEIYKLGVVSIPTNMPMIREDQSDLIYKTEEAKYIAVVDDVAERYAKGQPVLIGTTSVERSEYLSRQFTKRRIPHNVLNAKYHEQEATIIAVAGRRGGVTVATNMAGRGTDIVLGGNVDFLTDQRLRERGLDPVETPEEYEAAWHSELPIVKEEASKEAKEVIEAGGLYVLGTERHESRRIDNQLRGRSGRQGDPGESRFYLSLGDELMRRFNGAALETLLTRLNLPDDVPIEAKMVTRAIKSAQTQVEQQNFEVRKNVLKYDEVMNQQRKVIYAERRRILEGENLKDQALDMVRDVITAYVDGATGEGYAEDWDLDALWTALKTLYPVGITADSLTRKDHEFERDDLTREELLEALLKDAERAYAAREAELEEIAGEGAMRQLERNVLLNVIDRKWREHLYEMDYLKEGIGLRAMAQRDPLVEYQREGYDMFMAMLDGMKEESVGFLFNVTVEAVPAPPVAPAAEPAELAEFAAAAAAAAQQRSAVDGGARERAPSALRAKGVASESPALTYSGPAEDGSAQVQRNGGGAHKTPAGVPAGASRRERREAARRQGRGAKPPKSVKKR
Sequence of EcSecA N68 (P10408 1-610): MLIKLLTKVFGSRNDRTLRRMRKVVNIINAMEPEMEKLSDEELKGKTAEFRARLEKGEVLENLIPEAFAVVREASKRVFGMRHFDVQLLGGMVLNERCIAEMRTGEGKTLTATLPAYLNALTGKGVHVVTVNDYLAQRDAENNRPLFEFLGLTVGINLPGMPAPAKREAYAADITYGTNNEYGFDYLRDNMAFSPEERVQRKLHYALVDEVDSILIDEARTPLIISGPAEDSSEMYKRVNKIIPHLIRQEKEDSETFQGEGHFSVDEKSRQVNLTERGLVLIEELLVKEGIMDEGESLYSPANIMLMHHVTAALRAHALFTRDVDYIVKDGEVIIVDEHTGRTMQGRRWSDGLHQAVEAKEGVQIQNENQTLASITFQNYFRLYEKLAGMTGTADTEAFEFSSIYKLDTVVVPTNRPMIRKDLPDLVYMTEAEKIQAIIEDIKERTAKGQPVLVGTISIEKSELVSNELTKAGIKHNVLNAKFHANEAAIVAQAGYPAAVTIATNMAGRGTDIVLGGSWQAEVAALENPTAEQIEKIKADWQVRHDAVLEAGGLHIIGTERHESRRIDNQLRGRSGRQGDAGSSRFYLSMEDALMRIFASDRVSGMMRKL

Which results are given for CSc1nc(Cl)cc(Sc2nnc(-c3cc(C(F)(F)F)cc(C(F)(F)F)c3)[nH]2)n1 [SCA-107]?
IC50 (BaSecA1): 0.7 µM; IC50 (EcSecA [1]): 1.6 µM; IC50 (BsSecA [2]): > 200 µM; IC50 (MsSecA): 2.5 µM; IC50 (BsSecA [3]): 2.1 µM; IC50 (SpSecA): 0.7 µM; IC50 (EcSecA [4]): 25 µM; MIC (S. aureus Mu50): 0.5 µM (≈ 0.236 µg/mL); IC50 (EcSecA [5]): 28 µM; IC50 (EcSecA N68): 30 µM; IC50 (MtbSecA): 2 µM; IC50 (SaSecA2): 50 µM; MIC (S. pyogenes, MGAS5005): 0.19 µM (≈ 0.0896 µg/mL); IC50 (SaSecA1): 0.6 µM; IC50 (PaSecA): 1.3 µM; IC50 (BsSecA2): 65 µM
